Measurements reported in ChEMBL document CHEMBL1201862, “PubChem BioAssay data set” (2004).
One block for each compound: values may come before it. Calls of active or inactive are those of the source.

Columns and labels:
Cytochrome P450 2C19 = Cytochrome P450 2C19 (Homo sapiens, UniProt P33261); experiment: Cytochrome panel assay with activity outcomes. Panel member name: p450-cyp2c19 Compounds with AC50 equal or less than 10 uM are considered active; assay type: functional; settings: read-out: AC50
Cytochrome P450 2C9 = Cytochrome P450 2C9 (Homo sapiens, UniProt P11712)
[1] = target: T1, DNA repair protein RAD52 homolog (Homo sapiens, UniProt P43351); assay type: functional, biochemical
T1 sequence (P43351 whole entry): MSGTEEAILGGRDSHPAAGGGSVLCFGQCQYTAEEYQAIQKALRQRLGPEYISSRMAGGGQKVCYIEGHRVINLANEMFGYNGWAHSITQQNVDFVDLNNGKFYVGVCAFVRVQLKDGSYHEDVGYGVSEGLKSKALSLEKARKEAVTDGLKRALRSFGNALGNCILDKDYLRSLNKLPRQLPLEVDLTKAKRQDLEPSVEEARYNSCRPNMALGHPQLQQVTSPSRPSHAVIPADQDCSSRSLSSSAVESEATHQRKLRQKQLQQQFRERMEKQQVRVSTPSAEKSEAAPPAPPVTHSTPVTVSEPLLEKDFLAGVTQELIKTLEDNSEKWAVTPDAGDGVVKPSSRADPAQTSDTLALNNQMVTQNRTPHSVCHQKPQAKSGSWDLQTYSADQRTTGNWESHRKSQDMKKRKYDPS

Cytochrome P450 2D6 = Cytochrome P450 2D6 (Homo sapiens, UniProt P10635);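 further: CYP2D6 member of a cytochrome P450 panel assay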
Cytochrome P450 3A4 = Cytochrome P450 3A4 (Homo sapiens, UniProt P08684);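 further: CYP3A4 tested as one member of a cytochrome P450 panel screen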
[2] = intracellular Trypanosoma cruzi inhibitors in host cells – cell-based, plate reader, cherry-pick samples, set 3, dose response (AID 651818); assay type: functional;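 further: compounds incubated with infected cells for about four days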
Cytochrome P450 1A2 = target: T2, Cytochrome P450 1A2 (Homo sapiens, UniProt P05177);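 further: PubChem cytochrome P450 panel assay, CYP1A2 panel member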
T2 sequence (P05177 whole entry): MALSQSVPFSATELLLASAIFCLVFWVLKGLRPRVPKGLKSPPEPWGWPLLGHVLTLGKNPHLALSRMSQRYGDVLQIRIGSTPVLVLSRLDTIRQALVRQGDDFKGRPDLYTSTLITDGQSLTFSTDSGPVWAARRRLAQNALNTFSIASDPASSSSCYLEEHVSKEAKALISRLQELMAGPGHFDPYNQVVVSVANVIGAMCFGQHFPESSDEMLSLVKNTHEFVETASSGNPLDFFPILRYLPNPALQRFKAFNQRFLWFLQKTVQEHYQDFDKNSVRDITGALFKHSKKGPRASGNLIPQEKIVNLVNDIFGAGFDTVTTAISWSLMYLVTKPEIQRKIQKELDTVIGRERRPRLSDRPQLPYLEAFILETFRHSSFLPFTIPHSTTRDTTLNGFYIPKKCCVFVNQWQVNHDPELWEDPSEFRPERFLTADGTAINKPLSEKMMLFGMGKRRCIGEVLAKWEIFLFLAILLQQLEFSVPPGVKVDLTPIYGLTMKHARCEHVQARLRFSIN

HEK293 = experiment: inhibitors of LMP1-driven NF-kB reporter, dose response, cell-based, HEK293, luciferase, cherry-pick (AID 588343); assay type: functional; settings: Homo sapiens
cells = assay type: functional, cell-based
[3] = target: T3, Nuclear receptor subfamily 0 group B member 1 (Homo sapiens, UniProt P51843); assay type: functional, cell-based;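 further: HEK293T cells transfected with SF-1 and DAX-1 plus StAR promoter luciferase reporter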
T3 sequence (P51843 whole entry): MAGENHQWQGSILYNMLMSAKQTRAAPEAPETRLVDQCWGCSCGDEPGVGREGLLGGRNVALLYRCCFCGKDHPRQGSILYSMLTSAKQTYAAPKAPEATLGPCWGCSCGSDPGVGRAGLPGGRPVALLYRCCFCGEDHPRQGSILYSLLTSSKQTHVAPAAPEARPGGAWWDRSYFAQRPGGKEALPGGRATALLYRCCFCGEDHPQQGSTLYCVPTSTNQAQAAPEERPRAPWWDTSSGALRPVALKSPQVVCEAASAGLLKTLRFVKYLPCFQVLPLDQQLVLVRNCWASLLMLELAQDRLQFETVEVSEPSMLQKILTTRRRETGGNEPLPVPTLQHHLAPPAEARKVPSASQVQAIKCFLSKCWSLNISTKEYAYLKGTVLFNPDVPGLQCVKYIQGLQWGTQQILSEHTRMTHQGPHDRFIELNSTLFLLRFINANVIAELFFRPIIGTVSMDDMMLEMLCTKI

[4] = A549 cell cytotoxicity, dose response, cytotoxicity control, plate reader, cherry-pick, antagonist series (AID 743412); assay type: functional, cell-based
[5] = HepG2 cell cytotoxicity, dose response, cytotoxicity control, plate reader, cherry-pick, antagonist series (AID 743416); assay type: functional, cell-based
[6] = LGR2 antagonists, dose response, cell-based, HEK293, CRE-luciferase reporter, cherry pick, set 2 (AID 743343); assay type: functional;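 further: transfected cells were stimulated with diluted bursicon conditioned medium after compound addition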
[7] = MC4R antagonists, dose response, counter-screen for LGR2 antagonist project, cell-based, plate reader, cherry pick (AID 743444); assay type: functional;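 further: transfected HEK 293 cells stimulated with alpha-MSH peptide; potency of inhibitors of the alpha-MSH evoked signal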
[8] = inhibitors of HIV Env-driven cell fusion, dose response, cherry-pick (AID 652057); assay type: functional, cell-based
[9] = ZM109 Env clade C HIV-1 fusion inhibitors, dose response, HeLa effector, CEM target cells, luciferase, cherry-pick (AID 652058); assay type: functional, cell-based
[10] = inhibitors of clade B AD8 Env fusion, dose response, cell-based, cherry-pick (AID 652062); assay type: functional;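 further: luciferase signal from cell-cell fusion driven by HIV-1 clade B AD8 Env; potency is for inhibitors of fusion seen as a drop in luminescence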

Chain of Cytochrome P450 2C9 (P11712 whole entry): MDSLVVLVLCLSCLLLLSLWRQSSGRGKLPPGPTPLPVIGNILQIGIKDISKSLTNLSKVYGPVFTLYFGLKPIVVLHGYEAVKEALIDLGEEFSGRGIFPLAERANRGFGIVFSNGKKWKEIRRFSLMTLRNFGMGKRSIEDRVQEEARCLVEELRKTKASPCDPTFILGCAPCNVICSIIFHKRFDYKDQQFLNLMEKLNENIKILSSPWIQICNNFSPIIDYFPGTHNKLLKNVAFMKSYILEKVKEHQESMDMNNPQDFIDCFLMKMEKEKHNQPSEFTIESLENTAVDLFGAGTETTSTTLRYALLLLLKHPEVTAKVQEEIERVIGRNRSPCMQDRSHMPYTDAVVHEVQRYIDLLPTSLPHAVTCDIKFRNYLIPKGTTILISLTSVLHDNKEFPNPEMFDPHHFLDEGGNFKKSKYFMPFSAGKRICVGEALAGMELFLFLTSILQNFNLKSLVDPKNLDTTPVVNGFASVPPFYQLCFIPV
Chain of Cytochrome P450 2C19 (P33261 whole entry): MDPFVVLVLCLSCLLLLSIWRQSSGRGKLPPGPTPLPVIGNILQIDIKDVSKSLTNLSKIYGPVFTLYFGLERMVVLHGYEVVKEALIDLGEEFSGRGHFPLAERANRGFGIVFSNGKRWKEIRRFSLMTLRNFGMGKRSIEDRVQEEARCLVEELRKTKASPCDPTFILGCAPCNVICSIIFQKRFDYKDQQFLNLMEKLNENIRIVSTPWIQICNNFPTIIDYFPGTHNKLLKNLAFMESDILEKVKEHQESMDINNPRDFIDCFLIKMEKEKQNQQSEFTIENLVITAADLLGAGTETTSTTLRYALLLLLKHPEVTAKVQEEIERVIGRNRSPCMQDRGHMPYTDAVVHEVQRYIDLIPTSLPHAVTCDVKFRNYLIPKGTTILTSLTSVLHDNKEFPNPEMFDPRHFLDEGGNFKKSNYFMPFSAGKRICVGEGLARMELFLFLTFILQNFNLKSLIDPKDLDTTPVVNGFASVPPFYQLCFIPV
Chain of Cytochrome P450 2D6 (P10635 whole entry): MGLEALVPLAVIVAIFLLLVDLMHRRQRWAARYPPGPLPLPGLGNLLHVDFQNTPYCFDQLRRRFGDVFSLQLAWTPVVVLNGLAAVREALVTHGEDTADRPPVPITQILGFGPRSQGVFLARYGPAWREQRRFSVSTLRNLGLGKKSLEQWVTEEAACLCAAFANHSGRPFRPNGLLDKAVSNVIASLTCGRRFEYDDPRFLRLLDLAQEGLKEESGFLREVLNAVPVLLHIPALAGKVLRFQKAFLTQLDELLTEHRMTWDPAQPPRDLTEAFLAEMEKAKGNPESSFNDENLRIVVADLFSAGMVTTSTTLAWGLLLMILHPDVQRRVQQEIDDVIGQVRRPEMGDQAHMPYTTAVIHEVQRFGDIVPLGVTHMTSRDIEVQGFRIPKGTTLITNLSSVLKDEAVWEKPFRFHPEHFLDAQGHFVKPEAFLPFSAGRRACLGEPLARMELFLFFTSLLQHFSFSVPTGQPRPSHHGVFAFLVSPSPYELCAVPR
Chain of Cytochrome P450 3A4 (P08684 whole entry): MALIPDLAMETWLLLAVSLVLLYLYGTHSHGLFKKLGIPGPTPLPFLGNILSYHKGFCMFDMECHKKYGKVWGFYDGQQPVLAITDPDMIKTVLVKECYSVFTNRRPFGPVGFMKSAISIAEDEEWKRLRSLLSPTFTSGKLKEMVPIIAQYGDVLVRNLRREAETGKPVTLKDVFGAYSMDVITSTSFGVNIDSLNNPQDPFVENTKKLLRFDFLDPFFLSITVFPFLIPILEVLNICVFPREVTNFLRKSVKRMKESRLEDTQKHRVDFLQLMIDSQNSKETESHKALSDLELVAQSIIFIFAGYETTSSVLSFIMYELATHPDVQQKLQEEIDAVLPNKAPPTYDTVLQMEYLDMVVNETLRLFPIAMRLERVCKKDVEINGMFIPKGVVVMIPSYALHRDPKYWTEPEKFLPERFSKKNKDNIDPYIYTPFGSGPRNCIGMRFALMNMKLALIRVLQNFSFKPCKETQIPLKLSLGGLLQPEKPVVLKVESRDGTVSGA

- AC50 (Cytochrome P450 2C19): 8.91 µM (inconclusive)
- AC50 (Cytochrome P450 2C9): inconclusive
SMILES: Cc1ccc(-c2nc3c(=O)n(C)c4ccccc4c3o2)cc1

- AC50 [1]: 9.01 µM (active)
SMILES: COc1ccc(Cl)c2sc(N(CCN(C)C)C(=O)c3ccc4c(c3)OCCO4)nc12

- AC50 (Cytochrome P450 2D6): 22.4 µM (inconclusive)
- AC50 (Cytochrome P450 3A4): 12.6 µM (inconclusive)
- AC50 (Cytochrome P450 2C9): inconclusive
SMILES: Cc1cccc(NC(=O)CCSc2nc(C)cc(C)n2)c1

SMILES: C[C@@H]1CN([C@@H](C)CO)C(=O)c2cccc(NC(=O)c3nc4ccccc4s3)c2O[C@@H]1CN(C)CC1CCCCC1
- AC50 [2]: 7.6 µM (active)

- AC50 (Cytochrome P450 2C9): inconclusive
SMILES: CS(=O)(=O)N1CCC2(CC1)CN(c1cccc(-c3ccccc3)c1)C2

- AC50 (Cytochrome P450 1A2): 7.08 µM (inconclusive)
- AC50 (Cytochrome P450 2C9): inconclusive
SMILES: CC(C)NC(=O)COC(=O)c1cc(O)nc2ccccc12

- AC50 (Cytochrome P450 2C19): 7.94 µM (inconclusive)
- AC50 (Cytochrome P450 1A2): 17.8 µM (inconclusive)
- AC50 (Cytochrome P450 2C9): inconclusive
SMILES: CCc1cc(C(=O)NN=C(S)NCC2CCCO2)cs1 (stereo unspecified)

SMILES: C[C@H]1CN([C@@H](C)CO)C(=O)Cc2cc(NC(=O)Nc3ccc(F)cc3)ccc2O[C@@H]1CN(C)Cc1ccc(C(F)(F)F)cc1
- AC50 [2]: 4.21 µM (active)

SMILES: COc1ccc2oc(C(=O)NCCc3ccccc3)c(C)c2c1
- AC50 (HEK293): 2.48 µM (active)
- IC50 (cells): > 67.5 µM (inactive)
- IC50 [3]: > 67.5 µM (inactive)
- AC50 [4]: 8.39 µM (active)
- AC50 [5]: 12.7 µM (active)
- AC50 [6]: 5.62 µM (active)
- AC50 [7]: 8.65 µM (active)

SMILES: NC(=O)C1CCN(C(=O)c2cc3c(s2)CCCC3)CC1
- IC50 (cells): > 67.6 µM (inactive)
- IC50 [3]: > 67.6 µM (inactive)

SMILES: C[C@@H]1CN([C@@H](C)CO)S(=O)(=O)c2ccc(-c3cccc(F)c3)cc2O[C@@H]1CN(C)S(=O)(=O)c1ccccc1
- AC50 [8]: 0.597 µM (active)
- AC50 [9]: 0.965 µM (active)
- AC50 [10]: 6.62 µM (active)
